# Data taken from paper PMC10503797, “Allosteric modulator potentiates β2AR agonist–promoted bronchoprotection in asthma models” (The Journal of Clinical Investigation, 2023).
# Several values for one entry are separate records, joined by “and”; a condition that tells them apart may be missing. Identical values can stand only once.
# Tests used:
# murine WT β2AR = target: T1, murine WT β2AR (Mus musculus, UniProt P18762); assay: GloSensor cAMP, constitutive activity of overexpressed murine WT β2AR; assay type: cell-based
# T1 construct: expressed in transfected cells; HEK293 GloSensor cells (cAMP assay)
# T1 sequence (P18762 whole entry): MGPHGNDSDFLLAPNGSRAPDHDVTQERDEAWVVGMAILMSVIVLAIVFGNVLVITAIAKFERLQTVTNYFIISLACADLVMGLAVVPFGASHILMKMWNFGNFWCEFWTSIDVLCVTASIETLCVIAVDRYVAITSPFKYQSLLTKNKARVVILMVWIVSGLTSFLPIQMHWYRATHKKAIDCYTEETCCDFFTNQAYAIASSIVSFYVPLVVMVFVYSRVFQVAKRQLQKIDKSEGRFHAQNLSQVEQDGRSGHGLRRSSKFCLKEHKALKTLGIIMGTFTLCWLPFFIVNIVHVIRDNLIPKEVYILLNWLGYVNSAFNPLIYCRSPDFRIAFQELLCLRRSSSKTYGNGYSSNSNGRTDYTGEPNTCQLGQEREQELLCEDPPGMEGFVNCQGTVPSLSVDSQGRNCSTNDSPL
# murine V133F mutant β2AR = target: T2, murine V133F mutant β2AR (Mus musculus, UniProt P18762, V133F); assay: GloSensor cAMP, constitutive activity of overexpressed murine V133F mutant β2AR; assay type: cell-based; settings: Cmpd-6 at 5 μM, no orthosteric agonist
# T2 construct: expressed in transfected cells; HEK293 GloSensor cells (cAMP assay)
# T2 sequence (P18762 whole entry V133F): as the sequence (P18762 whole entry) above, with V133F counted along it
# C57BL/6J naive mice [1] = assay: In vivo bronchoprotection protocol, methacholine-induced airway constriction (flexiVent); parameters: Newtonian resistance (Rn): unit not given here; settings: for Newtonian resistance (Rn): Cmpd-6 10 mg/kg i.v., 10 mg/kg
# Description: (§1) For the bronchoprotection protocol (A), bronchospasm was induced by i.v. administration of methacholine (25, 50, 100, 200, and 400 μg/kg). […] General Linear Model repeated measures ANOVA with Tukey’s posthoc test was used to determine the differences of airway responsiveness between DMSO- and Cmpd-6–treated conditions.
# (§2) Airway hyperresponsiveness (AHR) was measured using the forced oscillation technique as described previously ([42]). […] For the bronchoprotection protocol, bronchospasm was induced by jugular vein i.v. administration of increasing doses of methacholine (25, 50, 100, 200, 400 μg/kg). […] Mice were ventilated with 100% oxygen at 150 breaths per minute, constant volume of 8 mL/kg and a 3 cm H2O positive end–expiratory pressure using a computer-controlled small animal ventilator (flexiVent, SCIREQ). The total lung impedance signal collected contained information about the resistance and elastance properties of the lung from which Newtonian resistance (Rn), a good indicator of the luminal diameter of the conducting airways, was calculated using the constant phase model. The heart rate data acquired using EKG electrodes was monitored to assess mouse viability and analgesia throughout the bronchoconstrictor protocols.
# C57BL/6J naive mice [2] = assay: In vivo bronchodilation protocol, albuterol in methacholine-preconstricted airways (flexiVent); settings: Cmpd-6 10 mg/kg i.v.; methacholine […] + albuterol 1-30 μg/kg
# Description: as §1, §2
# [3] = Solubility by formation of precipitates under the microscope; assay type: physicochemical
# Description: *Solubility was determined by formation of precipitates observed under the microscope. **Cell […]
# binds an intracellular region of the β2AR. ***Log P, Log of the Partition coefficient that was calculated using ChemDraw Professional (version 22.2, PerkinElmer). DMSO, dimethyl […]
# (1 picture or pasted object on this page, not shown here)
# WT murine β2AR = WT murine β2AR (Mus musculus, UniProt P18762); assay: 125I-CYP radioligand competition binding, WT murine β2AR; settings: WT Cmpd-6
# Chain of WT murine β2AR (P18762 whole entry): as the sequence (P18762 whole entry) above
# Description: (§3) Statistical analyses were performed using 1-way ANOVA, repeated (related) measures with Tukey’s posthoc test.
# V133F mutant murine β2AR = V133F mutant murine β2AR (Mus musculus, UniProt P18762, V133F); assay: 125I-CYP radioligand competition binding, V133F mutant murine β2AR; settings: V133F Cmpd-6
# Chain of V133F mutant murine β2AR (P18762 whole entry V133F): as the sequence (P18762 whole entry) above, with V133F counted along it
# Description: as §3
smiles,measurement,setting,value
COc1ccc(Sc2ccc(S(=O)(=O)N(C)C(C)C)cc2C(=O)N[C@H](CC(N)=O)Cc2ccc(C(C)(C)C)cc2)cc1 [Cmpd-6],cAMP level (% of ISO-stimulated maximal response),"murine WT β2AR; Cmpd-6 at 5 μM, no orthosteric agonist, Murine WT",25.8782% and 38.8997% and 33.0059% and 37.3496%
same,"cAMP, constitutive activity of overexpressed β2AR (Figure 4C)",murine WT β2AR; Species of β2AR: Murine,25.8782 and 38.8997 and 33.0059 and 37.3496
same,cAMP level (% of ISO-stimulated maximal response),murine V133F mutant β2AR,45.8463% and 58.5082% and 46.5958% and 56.3694%
same,Bronchoprotective effect against methacholine-induced airway resistance,C57BL/6J naive mice [1]; Cmpd-6 10 mg/kg i.v. 10 minutes before methacholine,no bronchoprotective effect
same,Newtonian resistance (Rn),C57BL/6J naive mice [1]; Mch 0 μg/kg,0.362 and 0.310 and 0.287 and 0.300 and 0.311
same,Newtonian resistance (Rn),C57BL/6J naive mice [1]; Mch 25 μg/kg,0.550 and 0.482 and 0.346 and 0.471 and 0.465
same,Newtonian resistance (Rn),C57BL/6J naive mice [1]; Mch 50 μg/kg,0.728 and 0.671 and 0.387 and 0.670 and 0.609
same,Newtonian resistance (Rn),C57BL/6J naive mice [1]; Mch 100 μg/kg,0.886 and 0.904 and 0.565 and 0.976 and 0.931
same,Newtonian resistance (Rn),C57BL/6J naive mice [1]; Mch 200 μg/kg,1.570 and 1.261 and 0.919 and 1.518 and 1.725
same,Newtonian resistance (Rn),C57BL/6J naive mice [1]; Mch 400 μg/kg,1.986 and 1.405 and 1.093 and 1.461 and 1.642
same,Effect on albuterol-mediated bronchodilation,C57BL/6J naive mice [2],no enhancing effect
same,Solubility,[3]; Aqueous,0.032 mM
same,Solubility,[3]; DMSO,100 mM
same,125I-CYP binding (% of maximal),WT murine β2AR; log[ISO] -4 M,0.36% and 0.2162% and 0.04816% and -0.00042%
same,125I-CYP binding (% of maximal),WT murine β2AR; log[ISO] -4.49485 M,1.8839% and 1.834% and 1.807% and 2.135%
same,125I-CYP binding (% of maximal),WT murine β2AR; log[ISO] -5.09691 M,4.237% and 3.492% and 3.782% and 5.55%
same,125I-CYP binding (% of maximal),WT murine β2AR; log[ISO] -5.69897 M,11.5444% and 11.0871% and 11.3959% and 13.7676%
same,125I-CYP binding (% of maximal),WT murine β2AR; log[ISO] -6.30103 M,26.4647% and 27.054% and 29.2061% and 34.2195%
same,125I-CYP binding (% of maximal),WT murine β2AR; log[ISO] -6.90309 M,53.3668% and 53.0846% and 55.6007% and 58.7138%
same,125I-CYP binding (% of maximal),WT murine β2AR; log[ISO] -7.50515 M,77.7987% and 78.0629% and 80.5466% and 83.0218%
same,125I-CYP binding (% of maximal),WT murine β2AR; log[ISO] -8.10721 M,94.1342% and 94.186% and 93.5984% and 92.8613%
same,125I-CYP binding (% of maximal),WT murine β2AR; log[ISO] -8.70927 M,97.914% and 99.3549% and 97.9296% and 99.6433%
same,125I-CYP binding (% of maximal),WT murine β2AR; log[ISO] -9.31133 M,100.454% and 99.5549% and 102.315% and 101.138%
same,125I-CYP binding (% of maximal),WT murine β2AR; log[ISO] -9.91339 M,102.683% and 102.302% and 101.203% and 102.316%
same,125I-CYP binding (% of maximal),WT murine β2AR; no ISO competitor,100.129% and 100.082% and 100.868% and 101.552%
same,125I-CYP binding (% of maximal),V133F mutant murine β2AR; log[ISO] -4 M,0.3208% and 0.5206% and 0.2622% and 0.2602%
same,125I-CYP binding (% of maximal),V133F mutant murine β2AR; log[ISO] -4.49485 M,0.9301% and 1.21% and 0.9752% and 0.9507%
same,125I-CYP binding (% of maximal),V133F mutant murine β2AR; log[ISO] -5.09691 M,1.3005% and 2.025% and 1.333% and 1.6451%
same,125I-CYP binding (% of maximal),V133F mutant murine β2AR; log[ISO] -5.69897 M,2.898% and 2.7378% and 2.508% and 2.41%
same,125I-CYP binding (% of maximal),V133F mutant murine β2AR; log[ISO] -6.30103 M,7.927% and 6.9353% and 6.15% and 6.231%
same,125I-CYP binding (% of maximal),V133F mutant murine β2AR; log[ISO] -6.90309 M,15.2419% and 14.4367% and 12.7613% and 13.8675%
same,125I-CYP binding (% of maximal),V133F mutant murine β2AR; log[ISO] -7.50515 M,33.0019% and 29.7875% and 27.3642% and 30.2603%
same,125I-CYP binding (% of maximal),V133F mutant murine β2AR; log[ISO] -8.10721 M,56.9542% and 53.726% and 49.4673% and 52.7312%
same,125I-CYP binding (% of maximal),V133F mutant murine β2AR; log[ISO] -8.70927 M,79.9915% and 78.4975% and 76.4167% and 78.5935%
same,125I-CYP binding (% of maximal),V133F mutant murine β2AR; log[ISO] -9.31133 M,94.8693% and 96.2982% and 94.9618% and 94.6481%
same,125I-CYP binding (% of maximal),V133F mutant murine β2AR; log[ISO] -9.91339 M,100.835% and 99.7406% and 98.19% and 100.221%
same,125I-CYP binding (% of maximal),V133F mutant murine β2AR; no ISO competitor,103.118% and 101.321% and 102.31% and 102.083%
